# Test results from PubChem BioAssay AID248 (DTP/NCI, 2004).
# Several values for one entry are separate records, joined by “and”; a condition that tells them apart may be missing. Identical values can stand only once. Inconclusive results and toxic doses are left out.
# Tested on: L1210 leukemia ip in BDF1 mice, survival T/C
# Experiment: NCI In Vivo Anticancer Drug Screen. Data for tumor model L1210 Leukemia (intraperitoneal) in B6D2F1 (BDF1) mice
# Settings: endpoint: mean survival time, higher = longer survival
# How it was run: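 Value reflects the ratio of survival in compound-treated mice to survival in vehicle-treated controls, with both groups carrying the same transplanted tumor.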
# [1] = dose: 100.0 mg/kg/injection, schedule: Q04DX003 (ip), vehicle: saline
# [2] = dose: 200.0 mg/kg/injection, schedule: Q04DX003 (ip), vehicle: saline
# [3] = dose: 100.0 mg/kg/injection, schedule: Q04DX003 (ip), vehicle: Klucel (hydroxypropylcellulose) (HPC)
# [4] = dose: 100.0 mg/kg/injection, schedule: Q01DX009 (ip), vehicle: saline with Tween-80
# [5] = dose: 100.0 mg/kg/injection, schedule: Q01DX001 (ip), vehicle: saline with Tween-80
# [6] = dose: 200.0 mg/kg/injection, schedule: Q01DX001 (ip), vehicle: saline with Tween-80
# [7] = dose: 400.0 mg/kg/injection, schedule: Q01DX001 (ip), vehicle: saline with Tween-80
# [8] = dose: 200.0 mg/kg/injection, schedule: Q01DX009 (ip), vehicle: saline with Tween-80
# [9] = dose: 100.0 mg/kg/injection, schedule: Q01DX009 (ip), vehicle: saline
# [10] = dose: 100.0 mg/kg/injection, schedule: Q01DX001 (ip), vehicle: Klucel (hydroxypropylcellulose) (HPC)
# [11] = dose: 75.0 mg/kg/injection, schedule: Q01DX001 (ip), vehicle: saline
# [12] = dose: 150.0 mg/kg/injection, schedule: Q01DX001 (ip), vehicle: saline
# [13] = dose: 100.0 mg/kg/injection, schedule: Q04DX003 (ip), vehicle: saline with Tween-80
# [14] = dose: 200.0 mg/kg/injection, schedule: Q04DX003 (ip), vehicle: saline with Tween-80
# [15] = dose: 100.0 mg/kg/injection, schedule: Q01DX009 (ip), vehicle: Klucel (hydroxypropylcellulose) (HPC)
# [16] = dose: 200.0 mg/kg/injection, schedule: Q01DX009 (ip), vehicle: Klucel (hydroxypropylcellulose) (HPC)
smiles,measurement,setting,value
O=C(O)C1C(c2c3ccc(=O)c(O)c-3oc3c(O)c(O)ccc23)C2(Cl)C(Cl)=C(Cl)C1(Cl)C2(Cl)Cl (stereo not given),T/C,"dose: 50.0 mg/kg/injection, schedule: Q01DX009 (ip), vehicle: alcohol",92 % of control
same,T/C,"dose: 100.0 mg/kg/injection, schedule: Q01DX009 (ip), vehicle: alcohol",92 % of control
same,T/C,"dose: 100.0 mg/kg/injection, schedule: Q04DX003 (ip), vehicle: alcohol",100 % of control
same,T/C,"dose: 200.0 mg/kg/injection, schedule: Q04DX003 (ip), vehicle: alcohol",95 % of control
CCC[N+](C)(C)CCOC(=O)C1C2CC3OC(=O)C1C3C2 (stereo not given),T/C,[1],97 % of control
same,T/C,[2],95 % of control
CCC(CC)C(=O)NC(N)=O,T/C,[3],98 % of control
same,T/C,"dose: 200.0 mg/kg/injection, schedule: Q04DX003 (ip), vehicle: Klucel (hydroxypropylcellulose) (HPC)",103 % of control
same,T/C,"dose: 400.0 mg/kg/injection, schedule: Q04DX003 (ip), vehicle: Klucel (hydroxypropylcellulose) (HPC)",98 % of control
Nc1nc2ncc(CN(N=O)c3ccc(C(=O)NC(CCC(=O)O)C(=O)O)cc3)nc2c(=O)[nH]1 (stereo not given),T/C,"dose: 0.62 mg/kg/injection, schedule: Q01DX009 (ip), vehicle: water",98 % of control
same,T/C,"dose: 1.25 mg/kg/injection, schedule: Q01DX009 (ip), vehicle: water",100 % of control
same,T/C,"dose: 2.5 mg/kg/injection, schedule: Q01DX009 (ip), vehicle: water",98 % of control
same,T/C,"dose: 5.0 mg/kg/injection, schedule: Q01DX009 (ip), vehicle: water",96 % of control
same,T/C,"dose: 10.0 mg/kg/injection, schedule: Q01DX009 (ip), vehicle: water",98 % of control
CC(C)(C)N1CCCC1,T/C,"dose: 25.0 mg/kg/injection, schedule: Q01DX009 (ip), vehicle: saline with Tween-80",96 % of control
same,T/C,"dose: 50.0 mg/kg/injection, schedule: Q01DX009 (ip), vehicle: saline with Tween-80",91 % of control
same,T/C,[4],88 % of control
O=C(Cc1ccccc1)Nc1cccc(O)c1,T/C,[5],97 % of control
same,T/C,[6],96 % of control
same,T/C,[7],95 % of control
N/C(=N\O)c1cccnc1,T/C,"dose: 25.0 mg/kg/injection, schedule: Q01DX009 (ip), vehicle: water",98 % of control
same,T/C,"dose: 50.0 mg/kg/injection, schedule: Q01DX009 (ip), vehicle: water",106 % of control
same,T/C,[4],100 % of control
same,T/C,"dose: 100.0 mg/kg/injection, schedule: Q01DX009 (ip), vehicle: water",101 % of control
same,T/C,"dose: 100.0 mg/kg/injection, schedule: Q04DX003 (ip), vehicle: water",100 % of control
same,T/C,[8],96 % of control
same,T/C,"dose: 200.0 mg/kg/injection, schedule: Q01DX009 (ip), vehicle: water",97 % of control
same,T/C,"dose: 200.0 mg/kg/injection, schedule: Q04DX003 (ip), vehicle: water",107 % of control
C1CCC(C2OCCO2)CC1,T/C,[9],98 % of control
same,T/C,[1],97 % of control
same,T/C,"dose: 200.0 mg/kg/injection, schedule: Q01DX009 (ip), vehicle: saline",118 % of control
same,T/C,[2],94 % of control
same,T/C,"dose: 400.0 mg/kg/injection, schedule: Q01DX009 (ip), vehicle: saline",88 % of control
same,T/C,"dose: 400.0 mg/kg/injection, schedule: Q04DX003 (ip), vehicle: saline",92 % of control
C=CCOc1ccnc(-c2ccccc2)n1,T/C,[10],92 % of control
same,T/C,"dose: 200.0 mg/kg/injection, schedule: Q01DX001 (ip), vehicle: Klucel (hydroxypropylcellulose) (HPC)",95 % of control
same,T/C,"dose: 400.0 mg/kg/injection, schedule: Q01DX001 (ip), vehicle: Klucel (hydroxypropylcellulose) (HPC)",98 % of control
CC(C)(C)c1ccc2oc(-c3ccc(-c4nc5cc(C(C)(C)C)ccc5o4)s3)nc2c1,T/C,"dose: 100.0 mg/kg/injection, schedule: Q04DX003 (ip), vehicle: gum acacia",92 % of control
same,T/C,"dose: 200.0 mg/kg/injection, schedule: Q04DX003 (ip), vehicle: gum acacia",99 % of control
Cc1ccc(SCCCN)cc1,T/C,[11],100 % of control
same,T/C,[12],94 % of control
CCN1C(=O)C(Cl)=C(Cl)C1=O,T/C,"dose: 1.56 mg/kg/injection, schedule: Q01DX009 (ip), vehicle: saline with Tween-80",94 % of control
same,T/C,"dose: 3.13 mg/kg/injection, schedule: Q01DX009 (ip), vehicle: saline with Tween-80",91 % of control
same,T/C,"dose: 6.25 mg/kg/injection, schedule: Q01DX009 (ip), vehicle: saline with Tween-80",92 % of control and 87 % of control
N=C(N)SC1c2ccccc2-c2ccc(Br)cc21 (stereo not given),T/C,"dose: 75.0 mg/kg/injection, schedule: Q01DX001 (ip), vehicle: carboxymethylcellulose (CMC)",104 % of control
same,T/C,"dose: 150.0 mg/kg/injection, schedule: Q01DX001 (ip), vehicle: carboxymethylcellulose (CMC)",91 % of control
C[P+]1(CCc2ccc(Cl)cc2)CC(Br)C(Br)C1 (stereo not given),T/C,[10],104 % of control
CC12CCC(CC1)C(O)C2 (stereo not given),T/C,[5],104 % of control
same,T/C,[13],97 % of control
same,T/C,[6],101 % of control
same,T/C,[14],101 % of control
same,T/C,[7],98 % of control
same,T/C,"dose: 400.0 mg/kg/injection, schedule: Q04DX003 (ip), vehicle: saline with Tween-80",87 % of control
CCOC(OCC)C(=O)OCC(=O)[C@]1(O)Cc2c(O)c3c(c(O)c2[C@@H](OC2CC(N)C(O)C(C)O2)C1)C(=O)c1c(OC)cccc1C3=O (stereo not given in full),T/C,"dose: 0.25 mg/kg/injection, schedule: Q01DX009 (ip), vehicle: saline",118 % of control
same,T/C,"dose: 2.0 mg/kg/injection, schedule: Q01DX009 (ip), vehicle: saline",182 % of control
same,T/C,"dose: 4.0 mg/kg/injection, schedule: Q01DX009 (ip), vehicle: saline",90 % of control
Cc1cccc(C)c1N(COCC(C)C)C(=O)CCl,T/C,[4],100 % of control
same,T/C,[8],100 % of control
C=CCOCC(O)CN1CCC(C)CC1 (stereo not given),T/C,"dose: 6.0 mg/kg/injection, schedule: Q04DX003 (ip), vehicle: Klucel (hydroxypropylcellulose) (HPC)",95 % of control
same,T/C,"dose: 12.0 mg/kg/injection, schedule: Q04DX003 (ip), vehicle: Klucel (hydroxypropylcellulose) (HPC)",95 % of control
same,T/C,"dose: 25.0 mg/kg/injection, schedule: Q04DX003 (ip), vehicle: Klucel (hydroxypropylcellulose) (HPC)",97 % of control
same,T/C,"dose: 50.0 mg/kg/injection, schedule: Q04DX003 (ip), vehicle: Klucel (hydroxypropylcellulose) (HPC)",98 % of control
same,T/C,[3],95 % of control
ClCCCCCCCCCCc1ccccc1,T/C,"dose: 100.0 mg/kg/injection, schedule: Q01DX009 (ip), vehicle: saline sonified",91 % of control
same,T/C,"dose: 100.0 mg/kg/injection, schedule: Q04DX003 (ip), vehicle: saline sonified",96 % of control
same,T/C,"dose: 200.0 mg/kg/injection, schedule: Q01DX009 (ip), vehicle: saline sonified",93 % of control
same,T/C,"dose: 200.0 mg/kg/injection, schedule: Q04DX003 (ip), vehicle: saline sonified",102 % of control
same,T/C,"dose: 400.0 mg/kg/injection, schedule: Q01DX009 (ip), vehicle: saline sonified",89 % of control
same,T/C,"dose: 400.0 mg/kg/injection, schedule: Q04DX003 (ip), vehicle: saline sonified",98 % of control
CC1=CC(C)(N=[N+]=[N-])CC(C)(C)C1 (stereo not given),T/C,"dose: 37.5 mg/kg/injection, schedule: Q04DX003 (ip), vehicle: saline",107 % of control
same,T/C,[11],98 % of control
same,T/C,"dose: 75.0 mg/kg/injection, schedule: Q04DX003 (ip), vehicle: saline",100 % of control
same,T/C,[12],92 % of control
same,T/C,"dose: 150.0 mg/kg/injection, schedule: Q04DX003 (ip), vehicle: saline",103 % of control
CCOC(=O)c1ccc(NC(=O)Nc2cccc(C(F)(F)F)c2)cc1,T/C,[15],92 % of control
same,T/C,[16],90 % of control
O=C1c2c(ccc3ccccc23)CCC1CN1CCCCC1 (stereo not given),T/C,"dose: 100.0 mg/kg/injection, schedule: Q01DX001 (ip), vehicle: saline",102 % of control
same,T/C,"dose: 200.0 mg/kg/injection, schedule: Q01DX001 (ip), vehicle: saline",108 % of control
same,T/C,"dose: 400.0 mg/kg/injection, schedule: Q01DX001 (ip), vehicle: saline",112 % of control
CNc1ncnc2c1ncn2C1CC(CO)C(O)C1O (stereo not given),T/C,[9],98 % of control
C[S+]1Cc2ccccc2C1,T/C,[13],106 % of control
same,T/C,[14],104 % of control
CCOC(=O)c1cc(=O)[nH]c2cc(N)ccc12,T/C,[15],86 % of control
same,T/C,[16],89 % of control
same,T/C,"dose: 400.0 mg/kg/injection, schedule: Q01DX009 (ip), vehicle: Klucel (hydroxypropylcellulose) (HPC)",86 % of control
